Like-named read-outs stand apart in the source and are kept apart here.
What was measured:
DPP4 [1] = target: T1, DPP4 (Homo sapiens, UniProt P27487); test: In vitro DPP4 inhibition assay, fluorometric, H-Gly-Pro-amidomethyl coumarin substrate; conditions: for logIC50: Figure 4, competitive inhibitors
Description: The compounds were screened for their inhibitory activity against DPP4 by a fluorometric assay, measuring the hydrolysis rate of the substrate Gly-Pro-amidomethyl coumarin in the absence and presence of the inhibitor. […] DPP-4 activity was assessed by measuring the hydrolysis rate of the substrate H-Gly-Pro-amidomethyl coumarin. The resulting fluorescent product, 7-Amino-4-Methyl Coumarin (AMC), was monitored with a Tecan Pro2000 microplate fluorescence reader (Tecan Ltd, Zurich, Switzerland) at an excitation wavelength of 360 nm and an emission wavelength of 460 nm, with measurements taken every 60 s for 30 min. The inhibitors, dissolved in DMSO, were added to the reaction buffer (20 mM Tris-HCl, pH 8, 100 mM NaCl, and 1 mM EDTA) at 10 µL per reaction, along with 0.17 µg/mL of enzyme, and incubated for 10 min. After incubation, 50 µL of the appropriate substrate concentration was added, bringing the total reaction volume to 100 µL. The inhibition (%) was calculated as ((Fc − Fi)/Fc) × 100, where Fc is the fluorescence value of the control (no inhibitor-total activity) and Fi is the fluorescence value in the presence of the inhibitor. […] The volume of 10 μL DMSO was added to the total activity control instead of the inhibitor. A blank containing all other components except for the enzyme was abstracted in all cases. Each determination was performed in triplicate.

DPP4 [2] = target: T1, DPP4; test: Inhibition kinetic analysis of DPP4 (Lineweaver–Burk plot); assay type: biochemical; conditions: for Κm of the enzyme in the presence of the compound: without compound 49.7 ± 3.8; for Inhibition Mode: from Lineweaver–Burk plot, substrate 17–80 μM
Description: To further investigate the mode of inhibition, Lineweaver–Burk curves were prepared for some of the compounds.
The concentration range of the substrate (H-Gly-Pro-AMC) was 17–80 μM, and the final concentration of DPP-4 was 0.17 µg/mL. The maximum enzymatic reaction rate (Vmax) and Michaelis constant (Km) were calculated according to the Lineweaver–Burk plot.

[3] = cited from earlier work
[4] = read-out: % Inhibition, 50 μΜ Substrate
[5] = read-out: % Inhibition, 100 μΜ Substrate
[6] = compound concentration 0.100 μΜ
[7] = compound concentration 0.080 μΜ
[8] = compound concentration 15.000 μΜ

T1 sequence (P27487 whole entry): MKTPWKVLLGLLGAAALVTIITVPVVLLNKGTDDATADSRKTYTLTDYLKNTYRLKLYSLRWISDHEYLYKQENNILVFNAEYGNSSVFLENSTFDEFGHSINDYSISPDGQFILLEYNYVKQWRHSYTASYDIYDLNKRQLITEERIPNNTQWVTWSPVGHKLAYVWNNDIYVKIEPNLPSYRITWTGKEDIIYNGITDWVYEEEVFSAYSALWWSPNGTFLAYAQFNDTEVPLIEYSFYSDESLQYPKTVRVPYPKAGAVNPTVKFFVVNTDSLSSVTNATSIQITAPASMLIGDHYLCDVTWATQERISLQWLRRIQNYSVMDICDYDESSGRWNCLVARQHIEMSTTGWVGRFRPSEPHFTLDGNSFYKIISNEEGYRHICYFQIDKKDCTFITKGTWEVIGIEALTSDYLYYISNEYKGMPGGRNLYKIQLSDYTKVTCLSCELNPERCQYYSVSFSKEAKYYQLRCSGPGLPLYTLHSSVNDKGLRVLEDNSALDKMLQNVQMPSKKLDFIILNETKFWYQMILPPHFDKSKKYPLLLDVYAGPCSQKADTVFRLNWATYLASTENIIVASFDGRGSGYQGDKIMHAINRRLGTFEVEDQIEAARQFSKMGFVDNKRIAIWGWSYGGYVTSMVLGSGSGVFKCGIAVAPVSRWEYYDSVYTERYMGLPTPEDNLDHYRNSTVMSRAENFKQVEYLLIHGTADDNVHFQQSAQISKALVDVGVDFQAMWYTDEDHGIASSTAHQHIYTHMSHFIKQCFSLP

Row | SMILES | IC50 (DPP4 [1]; IC50, DPP4, triplicate) [µM] | inhibition at 0.08 µM (DPP4 [1]; [4]) [%] | inhibition at 0.08 µM (DPP4 [1]; [5]) [%] | Inhibition Mode (DPP4 [2]) | other results
1 | Cc1cc(C23CC4CC(CC(C4)C2)C3)cc2sc(N3C(=O)CSC3c3c(Cl)cccc3Cl)nc12 (stereo not shown) [n1, 3-(4-CH3,6-Ad-benzo[d]thiazol-2-yl)-2-(2,6-di-Cl-phenyl) thiazolidin-4-one] | 0.137 ± 0.0046 | 36.8 | 37.2 | non-competitive | Κm of the enzyme in the presence of the compound (DPP4 [2]; [6]): 49.8 ± 0.6
2 | O=C1CSC(c2ccc(Cl)cc2)N1c1nc2ccc(OC(F)(F)F)cc2s1 (stereo not shown) [h8] | 0.0906 ± 0.0088 | 45 | 26 | mixed | Κm of the enzyme in the presence of the compound (DPP4 [2]; [7]): 167.9 ± 15.8
3 | O=C1CSC(c2ccc(F)cc2)N1c1nc2ccc(Cl)cc2s1 (stereo not shown) [c1] | > 20 |  |  |  | inhibition at 10 µM (DPP4 [1]; [4]): 33.5%; inhibition at 10 µM (DPP4 [1]; [5]): 11.4%
4 | O=C1CSC(c2ccc(O)cc2)N1c1nc2ccc(OC(F)(F)F)cc2s1 (stereo not shown) [h10] | > 0.1 | 38 | 0 |  | 
5 | O=C1CSC(c2cccc(Cl)c2Cl)N1c1nc2ccc(OC(F)(F)F)cc2s1 (stereo not shown) [h4] | 0.027 ± 0.0005 | 84.4 | 12.1 | competitive | logIC50 (DPP4 [1]): 1.431; Κm of the enzyme in the presence of the compound (DPP4 [2]; [7]): 98 ± 26.9
6 | O=C1CSC(c2ccc([N+](=O)[O-])cc2)N1c1nc2ccc(OC(F)(F)F)cc2s1 (stereo not shown) [h7] | 0.0255 ± 0.003 | 67 | 55 |  | 
7 | O=C1CSC(c2ccc(Cl)cc2)N1c1nc2ccc(Cl)cc2s1 (stereo not shown) [c3] | 12.5 ± 0.2 |  |  |  | logIC50 (DPP4 [1]): 4.097; inhibition at 10 µM (DPP4 [1]; [4]): 41.6%; inhibition at 10 µM (DPP4 [1]; [5]): 28%
8 | Cc1cc(C23CC4CC(CC(C4)C2)C3)cc2sc(N3C(=O)CSC3c3c(F)cccc3F)nc12 (stereo not shown) [n2] | 0.0483 ± 0.0052 | 66.3 | 0 | competitive | logIC50 (DPP4 [1]): 1.681; IC50 (DPP4 [1]; IC50 (as printed in Figure 4), printed in the picture of Figure 4 without unit): 0.048 µM; Κm of the enzyme in the presence of the compound (DPP4 [2]; [6]): 117.2 ± 1.5
9 | O=C1CSC(c2ccc(F)cc2)N1c1nc2ccc(OC(F)(F)F)cc2s1 (stereo not shown) [h6] | > 0.1 | 46.8 | 0 |  | 
10 | O=C1CSC(c2c(F)cccc2Cl)N1c1nc2ccc(OC(F)(F)F)cc2s1 (stereo not shown) [h3, 3-(6-OCF3-benzo[d]thiazol-2-yl)-2-(2-F,6-Cl-phenyl) thiazolidin-4-one] | 0.012 ± 0.0005 | 62 | 20 | competitive | logIC50 (DPP4 [1]): 1.079; Κm of the enzyme in the presence of the compound (DPP4 [2]; compound concentration 0.010 μΜ): 103.1 ± 9.3
11 | CC#CCn1c(N2CCC[C@@H](N)C2)nc2c1c(=O)n(Cc1nc(C)c3ccccc3n1)c(=O)n2C [linagliptin] |  |  |  |  | excreted unmodified in the feces [3]: 87%
12 | N[C@@H](CC(=O)N1CCn2c(nnc2C(F)(F)F)C1)Cc1cc(F)c(F)cc1F [sitagliptin] |  |  |  |  | ends unmodified in the urine [3]: 79%
13 | O=C1CSC(c2ccc([N+](=O)[O-])cc2)N1c1nc2ccc(Cl)cc2s1 (stereo not shown) [c2] | 8.6 ± 0.2 |  |  | competitive | inhibition at 10 µM (DPP4 [1]; [4]): 66%; inhibition at 10 µM (DPP4 [1]; [5]): 14.1%; Κm of the enzyme in the presence of the compound (DPP4 [2]; [8]): 87.6 ± 4.8
14 | O=C1CSC(c2ccc(Cl)cc2Cl)N1c1nc2ccc(OC(F)(F)F)cc2s1 (stereo not shown) [h5] | 0.0237 ± 0.002 | 45 | 14 |  | 
15 | COc1ccc(C2SCC(=O)N2c2nc3ccc(OC(F)(F)F)cc3s2)cc1 (stereo not shown) [h9] | 0.0723 ± 0.0052 | 52.3 | 37.6 | mixed | 
16 | O=C1CSC(c2c(Cl)cccc2Cl)N1c1nc2ccc(OC(F)(F)F)cc2s1 (stereo not shown) [h1] | 0.031 ± 0.0038 | 79.8 | 12 |  | logIC50 (DPP4 [1]): 1.491
17 | O=C1CSC(c2c(F)cccc2Cl)N1c1nc2ccc(C34CC5CC(CC(C5)C3)C4)cc2s1 (stereo not shown) [m2, 3-(6-Ad-benzo[d]thiazol-2-yl)-2-(2-F,6-Cl-phenyl) thiazolidin-4-one] | 0.0715 ± 0.0083 | 52 | 69.7 | uncompetitive | Κm of the enzyme in the presence of the compound (DPP4 [2]; compound concentration 0.060 μΜ): 30.6 ± 2.7
18 | COc1ccc(C2SCC(=O)N2c2nc3ccc(Cl)cc3s2)cc1 (stereo not shown) [c4] | 11.5 ± 1.5 |  |  | uncompetitive | inhibition at 10 µM (DPP4 [1]; [4]): 48.5%; inhibition at 10 µM (DPP4 [1]; [5]): 68.5%; Κm of the enzyme in the presence of the compound (DPP4 [2]; [8]): 19.4 ± 9.3
